Results from patent US8603546B2, “Herbal supplement for increased muscle strength and endurance for athletes” (priority 1999, dated 2013).

Columns and labels:
athletes [1] = assay: Strength group: maximum weight lifted in 6 basic exercises by athletes taking galanthamine; assay type: in vivo, human
Text: (§1) 30 healthy individuals, both male and female, ages 18-28, are separated into 2 groups, 15 persons each, to observe the changes in their strength and endurance after administration of galanthamine and regular physical training. All subjects are athletes who have exercised regularly in the gym for 1 to 3 years. During the 3 week test period, all subjects train about 4 times a week with a special exercise program for the first week as described below, supplemented with the subjects' own preferred training schedule. Strength and endurance are observed through 6 basic exercises involving the major muscle groups as follows:
10 participants in each group take galanthamine, the other 5 take a placebo. The dosage of galanthamine is 7.5 mg daily taken with a meal 1.5-2 hours before the workout on training days and 5 mg daily on non-training days divided into two equal portions taken in the morning and in the afternoon. 2. The Strength Group. • a. The initial level. Before administration of galanthamine the initial strength level of each subject is determined and is defined as the maximum weight a subject is able to lift in all 6 exercises. • b. The training schedule. The subjects use a split training method, that is they alternate on one day training their chest, back and shoulder muscles (performing exercises #1, 2 and 3, respectively) and the next day train their biceps, triceps and legs (exercises #4, 5 and 6, respectively). The subjects do 5-6 sets in each exercise using a pyramidal principle for increasing their strength, i.e. they start every exercise doing 10-15 repetitions using a middle weight, then increase the weight gradually, being able to do fewer repetitions, until the maximum weight they are able to lift for one repetition with difficulty is reached. 2 sets are then performed using the same or 5-10% less weight. This maximum weight is considered the “record for the day”, and is compared to the initial level. • c. The results. An increase in strength is observed almost immediately after administration of galanthamine. […]

athletes [2] = assay: Endurance group: maximum repetitions in 6 basic exercises by athletes taking galanthamine; assay type: in vivo, human; details: vs initial level
Text: as §1
10 participants in each group take galanthamine, the other 5 take a placebo. The dosage of galanthamine is 7.5 mg daily taken with a meal 1.5-2 hours before the workout on training days and 5 mg daily on non-training days divided into two equal portions taken in the morning and in the afternoon. 2. The Strength Group. • a. The initial level. Before administration of galanthamine the initial strength level of each subject is determined and is defined as the maximum weight a subject is able to lift in all 6 exercises. • b. The training schedule. […]

COc1ccc2c3c1O[C@H]1C[C@@H](O)C=C[C@@]31CCN(C)C2 [galanthamine]
average increase in strength (athletes [1]; after 1 week, 7.5 mg daily on training days, 5 mg daily on non-training days, vs initial level): 4-7%
total increase in strength (athletes [1]; by the third week, 7.5 mg daily on training days, 5 mg daily on non-training days, vs initial level): 10-13%
increase in strength reported by athletes (athletes [1]; continued galanthamine for up to 3 months, during the entire period): over 20%
average endurance increase (athletes [2]; after the first week, 7.5 mg daily on training days, 5 mg daily on non-training days): 11%
average endurance increase (athletes [2]; end of the trial, after 3 weeks of treatment): 24%
